Results reported in US10638756B2, “Molecules having pesticidal utility, and intermediates, compositions, and processes, related thereto” (Dow AgroSciences LLC, priority 2017, dated 2020).

What was measured:
[1] = system: Beet Armyworm (Spodoptera exigua); assay: Bioassay on Beet Armyworm (BAW), 128-well diet tray assay; format: in vivo; conditions: Spodoptera exigua, 168 h; 50 μg/cm^2 on artificial diet, second instar larvae, five to seven days; read-out: BAW % Control (or Mortality) rating
[2] = system: Cabbage Looper (Trichoplusia ni); assay: Bioassay on Cabbage Looper (CL), 128-well diet tray assay; format: in vivo; conditions: 168 h, 50 μg/cm^2 on artificial diet, second instar larvae, five to seven days, read-out: CL % Control (or Mortality) rating
Outline: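 Percent mortality, averaged across eight replicate wells, after second-instar larvae (1–5 per well) fed for five to seven days on diet dosed at 50 μg/cm^2. Compound was applied in acetone-water 90:10 and dried; trays kept vented at 25° C under 14:10 photoperiod.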

SMILES	mortality at 50 µg/cm2 [1] [%]	mortality at 50 µg/cm2 [2] [%]
CN(NC(=O)c1ccc(/C(F)=C/C(c2ccc(Cl)c(OC(F)(F)F)c2)C(F)(F)F)cc1C(F)(F)F)c1ccccn1 (centres unmarked) [F60, (Z)-4-(3-(4-Chloro-3-(trifluoromethoxy)phenyl)-1,4,4,4-tetrafluorobut-1-en-1-yl)-N′-methyl-N′-(pyridin-2-yl)-2-(trifluoromethyl)benzohydrazide]	50 to 100	50 to 100
Cc1cc(/C(F)=C/C(c2cc(Cl)c(Cl)c(Cl)c2)C(F)(F)F)ccc1C(=O)NN(C)c1ncccn1 (centres unmarked) [F55, (Z)—N′,2-Dimethyl-N′-(pyrimidin-2-yl)-4-(1,4,4,4-tetrafluoro-3-(3,4,5-trichlorophenyl)but-1-en-1-yl)benzohydrazide]	50 to 100	50 to 100
O=C(NNc1cccnc1)c1ccc(/C(F)=C/C(c2cc(Cl)c(Cl)c(Cl)c2)C(F)(F)F)cc1C(F)(F)F (centres unmarked) [F121, (Z)—N′-(Pyridin-3-yl)-4-(1,4,4,4-tetrafluoro-3-(3,4,5-trichlorophenyl)but-1-en-1-yl)-2-(trifluoromethyl)benzohydrazide]	50 to 100	50 to 100
COc1cnc(N(C)NC(=O)c2ccc(/C(F)=C/C(c3cc(Cl)c(Cl)c(Cl)c3)C(F)(F)F)cc2C(F)(F)F)nc1 (centres unmarked) [F12, (Z)—N′-(5-Methoxypyrimidin-2-yl)-N′-methyl-4-(1,4,4,4-tetrafluoro-3-(3,4,5-trichlorophenyl)but-1-en-1-yl)-2-(trifluoromethyl)benzohydrazide]	50 to 100	50 to 100
CN(NC(=O)c1ccc(/C(F)=C/C(c2cc(Cl)cc(C(F)(F)F)c2)C(F)(F)F)cc1C(F)(F)F)c1ncccn1 (centres unmarked) [F83, (Z)-4-(3-(3-Chloro-5-(trifluoromethyl)phenyl)-1,4,4,4-tetrafluorobut-1-en-1-yl)-N′-methyl-N′-(pyrimidin-2-yl)-2-(trifluoromethyl)benzohydrazide]	50 to 100	50 to 100
CN(NC(=O)c1ccc(/C(F)=C/C(c2cc(Cl)c(Cl)c(Cl)c2)C(F)(F)F)cc1Cl)c1ncccn1 (centres unmarked) [F43, (Z)-2-Chloro-N′-methyl-N′-(pyrimidin-2-yl)-4-(1,4,4,4-tetrafluoro-3-(3,4,5-trichlorophenyl)but-1-en-1-yl)benzohydrazide]	50 to 100	50 to 100
Cc1nc(C)c(C)c(NNC(=O)c2ccc(/C(F)=C/C(c3cc(Cl)c(Cl)c(Cl)c3)C(F)(F)F)cc2C(F)(F)F)n1 (centres unmarked) [F75, (Z)-4-(1,4,4,4-Tetrafluoro-3-(3,4,5-trichlorophenyl)but-1-en-1-yl)-2-(trifluoromethyl)-N′-(2,5,6-trimethylpyrimidin-4-yl)benzohydrazide]	50 to 100	50 to 100
CS(=O)(=O)c1nc(Cl)c(Cl)c(NNC(=O)c2ccc(/C(F)=C/C(c3cc(Cl)c(Cl)c(Cl)c3)C(F)(F)F)cc2C(F)(F)F)c1Cl (centres unmarked) [F21, (Z)-4-(1,4,4,4-Tetrafluoro-3-(3,4,5-trichlorophenyl)but-1-en-1-yl)-N′-(2,3,5-trichloro-6-methylsulfonyl-4-pyridin-4-yl)-2-(trifluoromethyl)benzohydrazide]	50 to 100	50 to 100
O=C(NNc1ncccn1)c1ccc(/C(F)=C\C(c2cc(Cl)c(Cl)c(Cl)c2)C(F)(F)F)cc1C(F)(F)F (centres unmarked) [F74, (E)-N′-(pyrimidin-2-yl)-4-(1,4,4,4-tetrafluoro-3-(3,4,5-trichlorophenyl)but-1-en-1-yl)-2-(trifluoromethyl)benzohydrazide]	50 to 100	50 to 100
O=C(NNC1CCS(=O)(=O)C1)c1ccc(/C(F)=C/C(c2cc(Cl)c(Cl)c(Cl)c2)C(F)(F)F)cc1C(F)(F)F (centres unmarked) [F135, (Z)—N′-(1,1-Dioxidotetrahydrothiophen-3-yl)-4-(1,4,4,4-tetrafluoro-3-(3,4,5-trichlorophenyl)but-1-en-1-yl)-2-(trifluoromethyl)benzohydrazide]	50 to 100	50 to 100
O=C(NNc1ccncc1)c1ccc(/C(F)=C/C(c2cc(Cl)c(Cl)c(Cl)c2)C(F)(F)F)cc1C(F)(F)F (centres unmarked) [F57, (Z)—N′-(Pyridin-4-yl)-4-(1,4,4,4-tetrafluoro-3-(3,4,5-trichlorophenyl)but-1-en-1-yl)-2-(trifluoromethyl)benzohydrazide]	50 to 100	50 to 100
CN(NC(=O)c1ccc(/C(F)=C/C(c2cc(Cl)c(Cl)c(Cl)c2)C(F)(F)F)cc1C(F)(F)F)c1ncc([N+](=O)[O-])cn1 (centres unmarked) [F164, (Z)—N′-Methyl-N′-(5-nitropyrimidin-2-yl)-4-(1,4,4,4-tetrafluoro-3-(3,4,5-trichlorophenyl)but-1-en-1-yl)-2-(trifluoromethyl)benzohydrazide]	50 to 100	50 to 100
O=C(NNc1ccccc1[N+](=O)[O-])c1ccc(/C(F)=C/C(c2cc(Cl)c(Cl)c(Cl)c2)C(F)(F)F)cc1C(F)(F)F (centres unmarked) [F118, (Z)—N′-(2-nitrophenyl)-4-(1,4,4,4-tetrafluoro-3-(3,4,5-trichlorophenyl)but-1-en-1-yl)-2-(trifluoromethyl)benzohydrazide]	50 to 100	50 to 100
CN(NC(=O)c1ccc(/C(F)=C/C(c2ccc(OC(F)(F)F)c(Cl)c2)C(F)(F)F)cc1C(F)(F)F)c1ccccn1 (centres unmarked) [F107, (Z)-4-(3-(3-Chloro-4-(trifluoromethoxy)phenyl)-1,4,4,4-tetrafluorobut-1-en-1-yl)-N′-methyl-N′-(pyridin-2-yl)-2-(trifluoromethyl)benzohydrazide]	50 to 100	50 to 100
O=C(NNc1cccc(Br)n1)c1ccc(/C(F)=C/C(c2cc(Cl)c(Cl)c(Cl)c2)C(F)(F)F)cc1C(F)(F)F (centres unmarked) [F165, (Z)—N′-(6-Bromopyridin-2-yl)-4-(1,4,4,4-tetrafluoro-3-(3,4,5-trichlorophenyl)but-1-en-1-yl)-2-(trifluoromethyl)benzohydrazide]	50 to 100	50 to 100
CN(NC(=O)c1ccc(/C(F)=C/C(c2cc(Cl)c(Cl)c(Cl)c2)C(F)(F)F)cc1C(F)(F)F)c1nccc(C(F)(F)F)n1 (centres unmarked) [F91, (Z)—N′-methyl-4-(1,4,4,4-tetrafluoro-3-(3,4,5-trichlorophenyl)but-1-en-1-yl)-2-(trifluoromethyl)-N′-(4-(trifluoromethyl)pyrimidin-2-yl)benzohydrazide]	50 to 100	50 to 100
O=C(NNc1ncccn1)c1ccc(/C(F)=C/C(c2cc(Cl)c(Cl)c(Cl)c2)C(F)(F)F)cc1Cl (centres unmarked) [F20, (Z)-2-Chloro-N′-(pyrimidin-2-yl)-4-(1,4,4,4-tetrafluoro-3-(3,4,5-trichlorophenyl)but-1-en-1-yl)benzohydrazide]	50 to 100	50 to 100
O=C(NNc1ccccc1)c1ccc(/C(F)=C/C(c2cc(Br)c(F)c(Br)c2)C(F)(F)F)cc1C(F)(F)F (centres unmarked) [F45, (Z)-4-(3-(3,5-dibromo-4-fluorophenyl)-1,4,4,4-tetrafluorobut-1-en-1-yl)-N′-phenyl-2-(trifluoromethyl)benzohydrazide]	50 to 100	50 to 100
CC(C)CCN(C)NC(=O)c1ccc(/C(F)=C/C(c2cc(Cl)c(Cl)c(Cl)c2)C(F)(F)F)cc1C(F)(F)F (centres unmarked) [F160, (Z)—N′-Isopentyl-N′-methyl-4-(1,4,4,4-tetrafluoro-3-(3,4,5-trichlorophenyl)but-1-en-1-yl)-2-(trifluoromethyl)benzohydrazide]	50 to 100	50 to 100
N#CCN(NC(=O)c1ccc(/C(F)=C/C(c2cc(Cl)c(Cl)c(Cl)c2)C(F)(F)F)cc1C(F)(F)F)c1ncccn1 (centres unmarked) [F189, (Z)—N′-(cyanomethyl)-N′-(pyrimidin-2-yl)-4-(1,4,4,4-tetrafluoro-3-(3,4,5-trichlorophenyl)but-1-en-1-yl)-2-(trifluoromethyl)benzohydrazide]	50 to 100	50 to 100
O=C(NNc1ncnc(Cl)n1)c1ccc(/C(F)=C/C(c2cc(Cl)c(Cl)c(Cl)c2)C(F)(F)F)cc1C(F)(F)F (centres unmarked) [F58, (Z)—N′-(4-Chloro-1,3,5-triazin-2-yl)-4-(1,4,4,4-tetrafluoro-3-(3,4,5-trichlorophenyl)but-1-en-1-yl)-2-(trifluoromethyl)benzohydrazide]	50 to 100	50 to 100
O=C(NNc1c(Cl)c(Cl)nc(Cl)c1Cl)c1ccc(/C(F)=C/C(c2cc(Cl)c(Cl)c(Cl)c2)C(F)(F)F)cc1C(F)(F)F (centres unmarked) [F131, (Z)—N′-(Perchloropyridin-4-yl)-4-(1,4,4,4-tetrafluoro-3-(3,4,5-trichlorophenyl)but-1-en-1-yl)-2-(trifluoromethyl)benzohydrazide]	0	0
O=C(NNc1ncccc1[N+](=O)[O-])c1ccc(/C(F)=C/C(c2cc(Cl)c(Cl)c(Cl)c2)C(F)(F)F)cc1C(F)(F)F (centres unmarked) [F132, (Z)—N′-(3-Nitropyridin-2-yl)-4-(1,4,4,4-tetrafluoro-3-(3,4,5-trichlorophenyl)but-1-en-1-yl)-2-(trifluoromethyl)benzohydrazide]	50 to 100	50 to 100
O=C(NNc1cncc(Cl)n1)c1ccc(/C(F)=C/C(c2cc(Cl)c(Cl)c(Cl)c2)C(F)(F)F)cc1C(F)(F)F (centres unmarked) [F104, (Z)—N′-(6-Chloropyrazin-2-yl)-4-(1,4,4,4-tetrafluoro-3-(3,4,5-trichlorophenyl)but-1-en-1-yl)-2-(trifluoromethyl)benzohydrazide]	50 to 100	50 to 100
COc1cnc(NNC(=O)c2ccc(/C(F)=C/C(c3cc(Cl)c(Cl)c(Cl)c3)C(F)(F)F)cc2C(F)(F)F)nc1 (centres unmarked) [F90, (Z)—N′-(5-Methoxypyrimidin-2-yl)-4-(1,4,4,4-tetrafluoro-3-(3,4,5-trichlorophenyl)but-1-en-1-yl)-2-(trifluoromethyl)benzohydrazide]	50 to 100	50 to 100
